From patent US5332734A, “Oxazinone derivative” (Japan Tobacco, Incorporated, priority 1991, dated 1994) come the findings set out here.

Holding throughout (type): biochemical
For experiment [1], the target named is T1, human leukocyte elastase (HLE) (Homo sapiens, UniProt P08246).
T1 construct: applying a density gradient centrifugal operation so as to obtain neutrophils; from tissue; host or cells: neutrophils from human venous blood
T1 sequence (P08246 30-267): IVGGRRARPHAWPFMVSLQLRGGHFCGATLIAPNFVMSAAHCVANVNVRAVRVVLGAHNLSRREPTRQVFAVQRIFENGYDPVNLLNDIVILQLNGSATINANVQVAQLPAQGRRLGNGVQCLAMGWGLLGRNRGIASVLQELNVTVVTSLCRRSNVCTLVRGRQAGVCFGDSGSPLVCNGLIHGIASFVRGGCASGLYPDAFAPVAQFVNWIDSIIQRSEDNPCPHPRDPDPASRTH
Description: HLE inhibitory activity. The settings on record: HLE 5.63 nM, substrate 0.2625 mM, pH 8.6, 37° C. As to the method:
(§1) Inhibotory activities of the oxadinone derivative of the present invention against human leukocyte elastase (HLE), human sputum elastase (HSE), human cathepsin G (HCG), bovine pancreatic α-chymotrypsin (CYT) and bovine pancreatic trypsin (TRY) were measured as follows:
(1) Measurement of HLE Inhibitory Activity
A buffy coat was obtained by subjecting human vein blood to centrifugal separation, followed by adding distilled water to the buffy coat thus obtained for performing a low tension treatment so as to collapse erythrocytes. A mixture consisting of 10 parts of a 33.4% Conrey 400 solution and 24 parts of 9% of Ficoll solution was added to the residual blood cell component, followed by applying a density gradient centrifugal operation so as to obtain neutrophils. The neutrophil fraction was washed three times with Hanks' buffer so as to recover cells, which were frozen at -80° C. for preservation until the cells were used. The cells preserved under a frozen state were thawed with warm water of 37° C. and suspended in the lysis buffer (0.1M Tris-HCl pH 7.5, 1M MgCl2, 0.1% Brij 35), the amount of the buffer being 9 times as much as that of the cells. Then, the suspended cells were collapsed with polotron while cooling the suspension with ice. Then, the suspension was subjected to a centrifugal separation at 100,000×g for one hour so as to remove the precipitate. Also, a buffer (5 mM Tris-HCl pH 7.5, 1M NaCl, 1.1% Brij 35) was added to the supernatant in an amount twice as much as the supernatant so as to prepare a crude solution of an enzyme extract. The crude solution of an enzyme extract was adsorbed on an aprotinin affinity column. Further, the active fraction eluted with a 50 ml glycine-HCl solution (pH 3.3, 1M NaCl, 0.1% Brij 35) was passed through a MONO S ion-exchange chromatography. The active fraction eluted with a 2M NaCl linear gradient was dialyzed and, then, subjected to a freeze-drying so as to prepare an enzyme sample.
A test compound to be detected was dissolved in DMSO (for fluorometry) so as to prepare solutions of various concentrations. Then, the solution of 0.2M Tris-HCl (pH 9.6) was added to each of the solutions in an amount twice as much as the solution so as to prepare a test solution. On the other hand, a synthetic substrate (MeOSuc-Ala-Pro-Val-pNA; FUNAKOSHI) was dissolved in DMSO, followed by adding 0.2M tris-HCl solution (pH 8.6) to the solution in an amount twice as much as the solution so as to prepare a substrate solution.
A microplate (NUNK) provided with 96 wells was used for the reaction. The reaction was repeatedly carried out 6 times for each concentration of the test compound. Each of 140 μl of the enzyme solution (0.2M Tris-HCl, pH 8.6), 30 μl of the test material solution and 30 μl of the substrate solution was pre-incubated for 10 minutes at 37° C. for each well of the microplate. After incubation of a mixture of the enzyme solution and the test material solution for 10 minutes, the substrate solution was added so as to carry out the enzyme reaction. For determining the substrate decomposition, the absorbance (405 run) of the released pNA was measured by a microplate reader (MTP-100; CORONA), and the substrate decomposition was calculated on the basis of the average value of the absorbances repeatedly measured 6 times. The inhibitory concentration of the test compound relative to the decomposition amount of the substrate in the case where the test compound was not added was obtained as IC50 value.

For experiment [2], the target named is T2, human cathepsin G (HCG) (Homo sapiens, UniProt P08311).
T2 construct: purchased Cosmo Bio Inc
T2 sequence (P08311 21-255): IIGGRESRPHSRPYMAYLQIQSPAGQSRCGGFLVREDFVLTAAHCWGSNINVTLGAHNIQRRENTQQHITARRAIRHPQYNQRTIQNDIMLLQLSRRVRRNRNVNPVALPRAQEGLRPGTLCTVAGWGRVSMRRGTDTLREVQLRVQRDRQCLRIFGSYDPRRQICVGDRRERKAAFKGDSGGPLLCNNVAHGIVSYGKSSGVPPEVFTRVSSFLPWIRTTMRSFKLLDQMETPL
As to the kind of experiment: HCG inhibitory activity. The settings on record: HCG 50 nM, substrate 0.5 mM, pH 7.5. As to the method: as §1
(3) Measurement of HCG Inhibitory Activity
a) Enzyme Preparing Method Bought from Cosmo Bio Inc.
Employed was a measuring method similar to that described previously in conjunction with the measurement of the HLE inhibiting activity, except that used was a buffer solution of pH 7.5. The final concentrations of HCG and the synthetic substrate (Ac-Ala-Ala-Pro-Phe-pNA; FUNAKOSHI) in the solution of the enzyme reaction were 50 nM and 0.5 mM, respectively.

In experiment [3] the target is T3, bovine pancreatic α-chymotrypsin (CYT) (Bos taurus, UniProt P00766).
T3 construct: purchased Sigma Inc; host or cells: bovine pancreas (by its name)
As to the kind of experiment: CYT inhibitory activity. The settings on record: CYT 3.4 nM, substrate 0.273 mM, pH 8.0. The method, then:
as §1
(4) Measurement of CYT Inhibitory Activity
a) Enzyme Preparing Method Bought from Sigma Inc.
Employed was a measuring method similar to that described previously in conjunction with the measurement of the HLE inhibiting activity, except that used was a buffer solution of pH 8.0. The final concentrations of CYT and the synthetic substrate (Ac-Ala-Ala-Pro-Phe-pNA; FUNAKOSHI) in the solution of the enzyme reaction were 3.4 nM and 0.273 mM, respectively.

Molecules are shown by their SMILES. Bounds are passed on as bounds.

In general, IC50 refers to the point on the concentration scale where inhibition reaches its midpoint. The low end stands for greater potency, the high end for weaker potency. Consider `Cc1cccc2nc([C@@H](NC(=O)COC3c4ccccc4-c4ccccc43)C(C)C)oc(=O)c12` [Compound 3, 2-{1(S)-[(9-fluorenyloxyacetyl)amino]-2-methylpropyl}-5-methyl-4H-3,1-benzoxazin-4-one], for which the IC50 in experiment [1] is 510 nM; in experiment [2], over 27500 nM; in experiment [3] it was 3430 nM.
The compound `Cc1cccc2nc([C@@H](NC(=O)C=C3c4ccccc4-c4ccccc43)C(C)C)oc(=O)c12` [Compound 6, 2-{1(S)-[(fluorene-Δ^9, ^α -acetyl)amino]-2-methylpropyl}-5-methyl-4H-3,1-benzoxazin-4-one] yielded an IC50 in experiment [1] of 640 nM.
`Cc1cccc2nc(CNC(=O)COC3c4ccccc4-c4ccccc43)oc(=O)c12` [Compound 7, 2-[(9-fluorenyloxyacetyl)aminomethyl]-5-methyl-4H-3,1-benzoxazin-4-one]: the IC50 in experiment [1] was 1280 nM; in experiment [2], over 7590 nM; in experiment [3], over 7590 nM.
In experiment [1], `Cc1cccc2nc(C(C)(C)NC(=O)COC3c4ccccc4-c4ccccc43)oc(=O)c12` [Compound 8, 2-{1-[(9-fluorenyloxyacetyl)amino]-1-methylethyl}-5-methyl-4H-3,1-benzoxazin-4-one] returned an IC50 of 1000 nM.
In the case of `CC(=O)N(CCC(=O)N[C@H](c1nc2cccc(C)c2c(=O)o1)C(C)C)C1c2ccccc2-c2ccccc21` [Compound 5, 2-[1(S)-[[N-acetyl-N-(9-fluorenyl)-β-alanyl]amino]-2-methylpropyl]-5-methyl-4H-3,1-benzoxazin-4-one], the IC50 in experiment [1] was 240 nM; in experiment [2] it was over 12300 nM; in experiment [3], 1960 nM.
In the case of `Cc1cccc2nc([C@@H](NC(=O)CNC(=O)C3c4ccccc4-c4ccccc43)C(C)C)oc(=O)c12` [Compound 4, 2-[1(S)-[[N-(9-fluorenylcarbonyl)glycyl]amino]-2-methylpropyl]-5-methyl-4H-3,1-benzoxazin-4-one], the 50% inhibitory concentration (IC50) in experiment [1] was 750 nM; in experiment [2], 11300 nM; in experiment [3], 6580 nM.
